Legend:
[1] = tested on: Langendorff perfused rat heart; assay: Ex vivo Langendorff perfused rat heart ischemia-reperfusion, creatine phosphokinase (CPK) release
Experimental: In accordance with a well-established ex vivo rat heart model for ischemia-reperfusion (see, e.g., U.S. Publication Nos. 20080167247, 20080153926, 20070299012, and 20060293237, which are herein incorporated by reference) and the method described in Example 1, hearts were removed from animals (rats) and subjected to a normoxia or an IR protocol, both depicted in FIG. 1A. The normoxia regimen comprised exposing hearts to 70 minutes of a normal oxygen state. The IR (ischemia/reperfusion) regimens comprised subjecting hearts to 20 minutes of normoxia, followed by 35 minutes of ischemia, followed by 15 minutes of reperfusion. […] The amount of necrotic cell death was then determined by measuring the release of creatine phosphokinase (CPK) into the buffer perfusate during reperfusion, which served as an indicator of ischemic damage.
(§1) Rat hearts (Wistar, 250-300 g) were excised and cannulated on a Langendorff apparatus via the aorta. Briefly, retrograde perfusion was carried out with a constant coronary flow rate of 10 ml/min with oxygenated Krebs-Henseleit buffer containing 120 mM NaCl, 5,8 mM KCl, 25 mM NaHCO3, […], 1.2 mM MgSO4, 1.2 mM CaCl2, and 10 mM dextrose, pH 7.4 at 37° C. After a 20 min equilibration period, hearts were subjected to a 35 min of no-flow, global ischemia followed by 15 min of reperfusion. Control hearts were perfused with normoxic Krebs buffer and were time-matched for the experimental period. […] At the end of the 15 mins reperfusion period, hearts were rapidly transferred to ice-cold homogenization buffer and subcellular fractions separated by differential centrifugation as described below.
Necrotic damage was determined by measurement of the release of the cardiac myocyte cytosolic enzyme, creatine phosphokinase (CPK), into the effluent (FIG. 1B). The levels are expressed in arbitrary CPK units.
Isolated rat hearts were perfused with oxygenated Krebs-Henseleit solution comprised of NaCl ([…]); KCl ([…]); NaHCO3 ([…]); NaH2O4 ([…]); MgSO4 (1.2 nmol/L); CaCl2 (1.0 nmol/L); and dextrose (10 nmol/L), pH 7.4 at 37 C. After a 10 minute equilibration period, the hearts were treated with the ψεHSP90 peptide or control buffer solution. As depicted in FIG. 5A, Perfusion was maintained at a constant flow of 10 mL/min with Krebs-Henseleit solution containing 1 μM of the appropriate peptide. The Langendorff method employs retrograde flow […] and into the coronary arteries, bypassing the pulmonary arteries. To induce global ischemia, flow was interrupted for 35 minutes. After the ischemic event, the hearts were reperfused with Krebs-Henseleit solution for 15 minutes.
During reperfusion, ischemia-induced cell damage was determined by measuring the activity of creatine phosphokinase (CPK) in the coronary perfusate, carried out using a standard assay kit (Equal Diagnostics, CT, USA). The ψεHSP90 peptide was perfused in Langendorf mode for 10 minutes before and 10 minutes after the ischemic period (1 micromolar) and myocardial injury was assayed by the release of CPK into the effluent during reperfusion (FIG. 5B). Similar to the previous results, hearts that were subjected to IR had high levels of CPK in the effluent; however, perfusion with ψεHSP90 peptide decreased CPK release by 47% (n4; p<0.05; FIG. 5B). Translocation of εPKC and the related isoform δPKC to the mitochondria and plasma membrane was determined by western blotting using εPKC and δPKC antibodies (Santa Cruz Biotechnology) (FIG. 5C). […] Physical interaction between PKCε and HSP90 was determined by co-immunoprecipitation of PKCε and HSP90 in the mitochondrial fraction in hearts exposed to normoxia or IR in the absence or presence of 1 μM ψεHSP90 (FIG. 5D).

εPKC = target: T1, εPKC (Rattus norvegicus, UniProt P09216); assay: IR-induced mitochondrial translocation of εPKC (western blot of heart mitochondrial fraction); conditions: GA 5 μm during reperfusion; n=5; p<0.05
T1 construct: Rat heart ventricles were removed from the cannula and homogenized; from tissue; host or cells: Wistar rat heart ventricle; mitochondrial, IMM or plasma membrane fractions
T1 sequence (P09216 1-737): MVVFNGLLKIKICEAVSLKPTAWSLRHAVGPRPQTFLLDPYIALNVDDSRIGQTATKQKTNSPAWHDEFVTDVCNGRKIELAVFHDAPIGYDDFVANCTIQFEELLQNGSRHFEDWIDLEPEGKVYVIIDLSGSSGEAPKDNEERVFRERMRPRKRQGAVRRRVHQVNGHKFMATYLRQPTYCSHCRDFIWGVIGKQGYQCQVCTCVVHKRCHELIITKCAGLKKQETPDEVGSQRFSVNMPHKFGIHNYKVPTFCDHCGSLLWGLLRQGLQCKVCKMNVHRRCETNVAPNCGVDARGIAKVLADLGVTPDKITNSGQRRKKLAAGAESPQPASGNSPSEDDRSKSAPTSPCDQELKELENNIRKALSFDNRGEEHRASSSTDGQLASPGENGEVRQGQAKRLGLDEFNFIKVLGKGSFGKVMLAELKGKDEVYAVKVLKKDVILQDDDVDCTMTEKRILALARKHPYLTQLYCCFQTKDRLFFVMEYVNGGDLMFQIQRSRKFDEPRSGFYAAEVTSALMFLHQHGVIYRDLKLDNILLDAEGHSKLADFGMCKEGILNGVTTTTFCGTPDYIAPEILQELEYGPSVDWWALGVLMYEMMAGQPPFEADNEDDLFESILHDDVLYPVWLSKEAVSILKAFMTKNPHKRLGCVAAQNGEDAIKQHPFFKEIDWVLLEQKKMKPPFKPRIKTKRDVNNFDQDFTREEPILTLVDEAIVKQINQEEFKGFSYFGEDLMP
Experimental: as §1
Rat heart ventricles were removed from the cannula and homogenized in ice-cold mannitol-sucrose buffer (210 mM mannitol, 70 mM sucrose, 5 mM MOPS and 1 mM EDTA containing Sigma Protease Inhibitor 1 and Sigma Phosphatase Inhibitors 1 and 2, added per manufacturer's instructions) The resultant homogenate was filtered through gauze and centrifuged at 700 g for 5 minutes to pellet nuclei and cellular debris. […] Mitochondrial purity was also assessed by electron microscopic analysis. Protein concentration was determined by Bradford assay and 10 μg protein separated on a 12% SDS-PAGE gel and transferred to nitrocellulose. PKC translocation was measured using antibodies raised against εPKC and δPKC with mitochondrial (ANT) and cytosolic (GAPDH) markers used to ensure equal sample loading of the mitochondrial and cytosolic fractions, respectively. […]
During reperfusion, ischemia-induced cell damage was determined by measuring the activity of creatine phosphokinase (CPK) in the coronary perfusate, carried out using a standard assay kit (Equal Diagnostics, CT, USA). […] Translocation of εPKC and the related isoform δPKC to the mitochondria and plasma membrane was determined by western blotting using εPKC and δPKC antibodies (Santa Cruz Biotechnology) (FIG. 5C). […]

In the case of `COC1=C2C[C@@H](C)C[C@H](OC)[C@H](O)[C@@H](C)/C=C(\C)[C@H](OC(N)=O)[C@@H](OC)/C=C\C=C(/C)C(=O)NC(=CC1=O)C2=O` [GA, geldanamycin], the “increase in CPK release” value ([1]; IR (35 min ischemia, 15 min reperfusion) with 5 μM GA during reperfusion, versus IR alone, n=7, p<0.05) is reported as 176%, the “effect on CPK release in the absence of IR injury” value ([1]; normoxic hearts, 5 μm or 10 μm GA) is reported as “no effect” and the “block of IR-induced translocation of εPKC to the mitochondrial fraction” value (εPKC) is reported as 54%.

Reference: patent US20100048482A1, “COMPOSITIONS AND METHODS FOR MODULATING EPSILON PROTEIN KINASE C-MEDIATED CYTOPROTECTION” (Board of Trustees of the Leland Stanford Junior University, priority 2008, published 2010)
